Patent US11077106B2, “Cancer treatment” (Janssen Pharmaceutica NV, priority 2017, dated 2021)
Where two headings read alike, the source gives them in different places.

What was measured:
[1] = tested on: metastatic or surgically unresectable urothelial cancer harboring select FGFR genetic alterations
Protocol: Assessments of tumor responses as reported herein were performed according to Response Evaluation Criteria in Solid Tumors (RECIST) version 1.1.
Included patients were adults with measurable urothelial cancer per Response Evaluation Criteria in Solid Tumors version 1.1.
Patients were required to have at least 1 FGFR2/FGFR3 mutation or fusion per central lab testing of RNA from formalin-fixed, paraffin-embedded tumor samples, using a custom assay.
Patients had progressed during or following at least 1 line of prior systemic chemotherapy or less than 12 months of neoadjuvant or adjuvant chemotherapy.
The primary end point of this ongoing study is Objective Response Rate to the selected regimen (Regimen 3).
Secondary end points include progression-free survival (PFS), duration of response (DoR), Overall Survival, safety, predictive biomarker evaluation, and pharmacokinetics.
Patients were assessed for efficacy using radiographic imaging performed within 30 days of screening, once every 6 weeks for the first 3 months, once every 12 weeks for the next 9 months, then once every 4 to 6 months until disease progression. Tumor responses were assessed by investigators according to RECIST version 1.1 (Eisenhauer E A et al., Eur J Cancer, 2009, 45(2), 228-247).

[2] = tested on: subjects with metastatic or surgically unresectable urothelial cancer
Protocol: The study comprises a Screening Phase (molecular screening at any time prior to first dose and study screening within 30 days of first dose), a treatment phase, and a post-treatment follow-up phase. The treatment phase comprises the period from first dose until the end-of-treatment visit. The follow-up phase will extend until the subject has died, withdraws consent, is lost to follow-up, or the end of study, whichever comes first. Study treatment is administered on 28-day cycles. Prior to interim analysis 1, there were 2 treatment regimens.
Safety was assessed continuously by the investigator and based on medical review of AE reports and the results of vital sign measurements, physical examinations, clinical laboratory tests, ECOG performance status, and other safety evaluations.

[3] = Regimen 1, 10 mg intermittent dose (n = 33)
[4] = Regimen 2, 6 mg continuous dose (n = 78)
[5] = Regimen 3, 8 mg continuous dose (n = 59)
[6] = Any grade, Regimen 2, 6 mg continuous dose (n = 78)
[7] = Any grade, Regimen 3, 8 mg continuous dose (n = 96)
[8] = Grade ≥ 3, Regimen 1, 10 mg intermittent dose (n = 33)
[9] = Grade ≥ 3, Regimen 2, 6 mg continuous dose (n = 78)
[10] = Grade ≥ 3, Regimen 3, 8 mg continuous dose (n = 96)

COc1cc(OC)cc(N(CCNC(C)C)c2ccc3ncc(-c4cnn(C)c4)nc3c2)c1 [erdafitinib, N-(3,5-dimethoxyphenyl)-N′-(1-methylethyl)-N-[3-(1-methyl-1H-pyrazol-4-y)quinoxalin-6-yl]ethane-1,2-diamine]
patients with reduction in the sum of target lesion diameters ([1]; 8 mg/d continuous erdafitinib (Regimen 3), 44/59 patients): 75%
Complete response [1, 3]: 2 (6) n (%)
Disease control rate, confirmed, n (%) [1, 3]: 24 (73) n (%)
ORR, confirmed, n (%) [1, 3]: 8 (24) n (%)
Partial response [1, 3]: 6 (18) n (%)
Progression-free survival, median, months [1, 3]: 4.0 months
Stable disease [1, 3]: 16 (49) n (%)
Complete response [1, 4]: 2 (3) n (%)
Disease control rate, confirmed, n (%) [1, 4]: 57 (73) n (%)
ORR, confirmed, n (%) [1, 4]: 27 (35) n (%)
Partial response [1, 4]: 25 (32) n (%)
Progression-free survival, median, months [1, 4]: 5.1 months
Stable disease [1, 4]: 30 (39) n (%)
Complete response [1, 5]: 3 (5) n (%)
Disease control rate, confirmed, n (%) [1, 5]: 48 (81) n (%)
ORR, confirmed, n (%) [1, 5]: 25 (42) n (%)
Partial response [1, 5]: 22 (37) n (%)
Progression-free survival, median, months [1, 5]: 5.6 months
Stable disease [1, 5]: 23 (39) n (%)
Median Progression Free Survival ([1]; across all dose regimens): 5.1 months
confirmed Objective Response Rate ([1]; across all dose regimens (n = 170), 95% CI, 28%-43%): 35%
confirmed disease control rate ([1]; among all patients (n = 170)): 76%
response to treatment in relation to number of prior lines of treatment ([1]; chemo-naïve, one prior line, or two or more prior lines of chemotherapy): independent of the number of prior lines treatment
median time to response ([1]; subset of 59 patients on Regimen 3): 1.41 months
TRAE: Alopecia [2, 6]: 7 (9) n (%)
TRAE: Asthenia [2, 6]: 12 (15) n (%)
TRAE: Decreased appetite [2, 6]: 18 (23) n (%)
TRAE: Diarrhea [2, 6]: 34 (44) n (%)
TRAE: Dry eye [2, 6]: 2 (3) n (%)
TRAE: Dry mouth [2, 6]: 31 (40) n (%)
TRAE: Dry skin [2, 6]: 17 (22) n (%)
TRAE: Dysgeusia [2, 6]: 10 (13) n (%)
TRAE: Fatigue [2, 6]: 14 (18) n (%)
TRAE: Hyperphosphatemia [2, 6]: 48 (62) n (%)
TRAE: Lacrimation increased [2, 6]: 11 (14) n (%)
TRAE: Nail dystrophy [2, 6]: 7 (9) n (%)
TRAE: Onycholysis [2, 6]: 13 (17) n (%)
TRAE: Palmar-plantar erythrodysaesthesia syndrome [2, 6]: 12 (15) n (%)
TRAE: Paronychia [2, 6]: 11 (14) n (%)
TRAE: Stomatitis [2, 6]: 32 (41) n (%)
TRAE: Vision blurred [2, 6]: 5 (6) n (%)
TRAE: Alopecia [2, 7]: 22 (23) n (%)
TRAE: Asthenia [2, 7]: 13 (14) n (%)
TRAE: Decreased appetite [2, 7]: 23 (24) n (%)
TRAE: Diarrhea [2, 7]: 40 (42) n (%)
TRAE: Dry eye [2, 7]: 17 (18) n (%)
TRAE: Dry mouth [2, 7]: 40 (42) n (%)
TRAE: Dry skin [2, 7]: 26 (27) n (%)
TRAE: Dysgeusia [2, 7]: 32 (33) n (%)
TRAE: Fatigue [2, 7]: 19 (20) n (%)
TRAE: Hyperphosphatemia [2, 7]: 66 (69) n (%)
TRAE: Lacrimation increased [2, 7]: 8 (8) n (%)
TRAE: Nail dystrophy [2, 7]: 12 (13) n (%)
TRAE: Onycholysis [2, 7]: 10 (10) n (%)
TRAE: Palmar-plantar erythrodysaesthesia syndrome [2, 7]: 15 (16) n (%)
TRAE: Paronychia [2, 7]: 14 (15) n (%)
TRAE: Stomatitis [2, 7]: 45 (47) n (%)
TRAE: Vision blurred [2, 7]: 15 (16) n (%)
TRAE: Alopecia [2, 8]: 0 n (%)
TRAE: Asthenia [2, 8]: 2 (6) n (%)
TRAE: Decreased appetite [2, 8]: 0 n (%)
TRAE: Diarrhea [2, 8]: 1 (3) n (%)
TRAE: Dry eye [2, 8]: 0 n (%)
TRAE: Dry mouth [2, 8]: 0 n (%)
TRAE: Dry skin [2, 8]: 0 n (%)
TRAE: Dysgeusia [2, 8]: 0 n (%)
TRAE: Fatigue [2, 8]: 0 n (%)
TRAE: Hyperphosphatemia [2, 8]: 0 n (%)
TRAE: Lacrimation increased [2, 8]: 0 n (%)
TRAE: Nail dystrophy [2, 8]: 0 n (%)
TRAE: Onycholysis [2, 8]: 0 n (%)
TRAE: Palmar-plantar erythrodysaesthesia syndrome [2, 8]: 0 n (%)
TRAE: Paronychia [2, 8]: 0 n (%)
TRAE: Stomatitis [2, 8]: 1 (3) n (%)
TRAE: Vision blurred [2, 8]: 0 n (%)
TRAE: Alopecia [2, 9]: 0 n (%)
TRAE: Asthenia [2, 9]: 4 (5) n (%)
TRAE: Decreased appetite [2, 9]: 2 (3) n (%)
TRAE: Diarrhea [2, 9]: 0 n (%)
TRAE: Dry eye [2, 9]: 1 (1) n (%)
TRAE: Dry mouth [2, 9]: 2 (3) n (%)
TRAE: Dry skin [2, 9]: 0 n (%)
TRAE: Dysgeusia [2, 9]: 0 n (%)
TRAE: Fatigue [2, 9]: 1 (1) n (%)
TRAE: Hyperphosphatemia [2, 9]: 0 n (%)
TRAE: Lacrimation increased [2, 9]: 0 n (%)
TRAE: Nail dystrophy [2, 9]: 0 n (%)
TRAE: Onycholysis [2, 9]: 5 (6) n (%)
TRAE: Palmar-plantar erythrodysaesthesia syndrome [2, 9]: 0 n (%)
TRAE: Paronychia [2, 9]: 0 n (%)
TRAE: Stomatitis [2, 9]: 7 (9) n (%)
TRAE: Vision blurred [2, 9]: 1 (1) n (%)
TRAE: Alopecia [2, 10]: 0 n (%)
TRAE: Asthenia [2, 10]: 3 (3) n (%)
TRAE: Decreased appetite [2, 10]: 0 n (%)
TRAE: Diarrhea [2, 10]: 3 (3) n (%)
TRAE: Dry eye [2, 10]: 0 n (%)
TRAE: Dry mouth [2, 10]: 0 n (%)
TRAE: Dry skin [2, 10]: 0 n (%)
TRAE: Dysgeusia [2, 10]: 1 (1) n (%)
TRAE: Fatigue [2, 10]: 1 (1) n (%)
TRAE: Hyperphosphatemia [2, 10]: 2 (2) n (%)
TRAE: Lacrimation increased [2, 10]: 0 n (%)
TRAE: Nail dystrophy [2, 10]: 3 (3) n (%)
TRAE: Onycholysis [2, 10]: 1 (1) n (%)
TRAE: Palmar-plantar erythrodysaesthesia syndrome [2, 10]: 4 (4) n (%)
TRAE: Paronychia [2, 10]: 3 (3) n (%)
TRAE: Stomatitis [2, 10]: 8 (8) n (%)
TRAE: Vision blurred [2, 10]: 0 n (%)
patients discontinued as the result of TRAEs ([2]; across all dose regimens (22 patients)): 11%
treatment-related deaths ([2]; across all dose regimens, safety population N=207): no treatment-related deaths
patients reporting grade 4 TRAEs ([2]; across all dose regimens, safety population N=207 (n=1)): 0.5%
patients reporting grade 3 TRAEs ([2]; across all dose regimens, safety population N=207 (n=69)): 33%
patients reporting TRAEs ([2]; across all dose regimens, safety population N=207 (n=195)): 94%
patients reporting retinopathy ([2]; across all dose regimens, grade 2 [n=1] and grade 3 [n=1]): 2 patients
